Reference: ChEMBL document CHEMBL5236634, “Membrane-Targeting Neolignan-Antimicrobial Peptide Mimic Conjugates to Combat Methicillin-Resistant Staphylococcus aureus (MRSA) Infections” (J Med Chem, 2022)
≈ marks a conversion by molar mass, not a printed value. Calls of active or inactive are those of the source. No cut-off for these calls is given here.

Legend:
[1] = Hemolytic activity in sheep RBC incubated for 1 hr by absorbance based analysis; format: toxicity, cell-based, Ovis aries, Erythrocyte; settings: sheep red blood cells
Staphylococcus aureus [2] = experiment: Antibacterial activity against Staphylococcus aureus ATCC 29213 assessed as inhibition of bacterial growth incubated for 16 to 20 hrs by CLSI based microdilution method; format: functional; settings: time 16-20 hrs
[3] = Selectivity index, ratio of HC50 for hemolytic activity in sheep RBC to MIC for antibacterial activity against Staphylococcus aureus ATCC 29213; format: toxicity; settings: sheep red blood cells
Enterococcus faecalis = experiment: Antibacterial activity against Enterococcus faecalis ATCC 29212 assessed as inhibition of bacterial growth incubated for 16 to 20 hrs by CLSI based microdilution method; format: functional; settings: time 16-20 hrs
Salmonella enterica [4] = experiment: Antibacterial activity against Salmonella enterica H9812 assessed as inhibition of bacterial growth incubated for 16 to 20 hrs by CLSI based microdilution method; format: functional; settings: time 16-20 hrs
Micrococcus luteus = experiment: Antibacterial activity against Micrococcus luteus assessed as inhibition of bacterial growth incubated for 16 to 20 hrs by CLSI based microdilution method; format: functional; settings: time 16-20 hrs
Escherichia coli = experiment: Antibacterial activity against Escherichia coli ATCC 25922 assessed as inhibition of bacterial growth incubated for 16 to 20 hrs by CLSI based microdilution method; format: functional; settings: time 16-20 hrs
Salmonella enterica [5] = experiment: Antibacterial activity against Salmonella enterica 8389 assessed as inhibition of bacterial growth incubated for 16 to 20 hrs by CLSI based microdilution method; format: functional; settings: time 16-20 hrs
Staphylococcus aureus [6] = experiment: Induction of drug resistance in Staphylococcus aureus ATCC 29213 assessed as increase in MIC at 0.5 times MIC measured after 2 days by CLSI based microdilution method; format: functional, organism-based; settings: time 2.0 day
Cell membrane [7] = experiment: Disruption of membrane integrity in methicillin-resistant Staphylococcus aureus 15 assessed as increase in fluorescence intensity at 32 ug/ml measured immediately by Sytox green based fluorescence method; format: subcellular; settings: dose 32.0 µg/ml
Cell membrane [8] = experiment: Induction of membrane depolarization in methicillin-resistant Staphylococcus aureus 15 assessed as increase in fluorescence intensity at 32 ug/ml by DiSC3-5 dye based fluorescence method; format: subcellular; settings: dose 32.0 µg/ml
Staphylococcus aureus [9] = experiment: Inhibition of biofilm formation in methicillin-resistant Staphylococcus aureus 15 assessed as destruction of formed biofilm at 128 ug/ml incubated for 24 hrs by crystal violet staining based analysis relative to control; format: functional
Staphylococcus aureus [10] = experiment: Inhibition of biofilm formation in Staphylococcus aureus ATCC 29213 at 64 ug/ml incubated for 24 hrs by crystalline violet staining based analysis; format: functional; settings: dose 64.0 µg/ml
Staphylococcus aureus [11] = experiment: Bactericidal activity against methicillin-resistant Staphylococcus aureus 15 at 4 to 8 times MIC measured at 24 hrs by time kill assay; format: functional, organism-based
Staphylococcus aureus [12] = experiment: Inhibition of biofilm formation in methicillin-resistant Staphylococcus aureus 15 at 64 ug/ml incubated for 24 hrs by crystalline violet staining based analysis; format: functional; settings: dose 64.0 µg/ml

| Compound | HC50 at 1 h [1] [µg/mL] | MIC (Staphylococcus aureus [2]) [µg/mL] | selectivity ratio [3] | MIC (Enterococcus faecalis) [µg/mL] | MIC (Salmonella enterica [4]) [µg/mL] | MIC (Micrococcus luteus) [µg/mL] | MIC (Escherichia coli) [µg/mL] | MIC (Salmonella enterica [5]) [µg/mL] | Activity (Staphylococcus aureus [6]) | Activity (Cell membrane [7]) | Activity (Cell membrane [8]) | inhibition at 128 µg/mL (Staphylococcus aureus [9]) [%] | inhibition (Staphylococcus aureus [10]) | Activity (Staphylococcus aureus [11]) | inhibition (Staphylococcus aureus [12]) |
| --- | --- | --- | --- | --- | --- | --- | --- | --- | --- | --- | --- | --- | --- | --- | --- |
| C=CCc1cccc(Oc2ccc(C(=O)CC)cc2)c1OCC[N+](C)(C)CC(=O)NCCCC.[Br-] | 1150 | 32 | 35.9 | 64 | 64 | 64 | 64 | 128 | – | – | – | – | – | – | – |
| C=CCc1cccc(Oc2ccc(C(=O)CC)cc2)c1OCCC[N+](C)(C)CC(=O)NCCCC.[Br-] | 507 | 8 | 63.3 | 16 | 64 | 32 | 32 | 128 | – | – | – | – | – | – | – |
| Br.C=CCc1cccc(Oc2ccc(C(=O)CC)cc2)c1OCCCSC(=N)N | 894 | 16 | 55.8 | 64 | 64 | 32 | 32 | 64 | – | – | – | – | – | – | – |
| C=CCc1cccc(Oc2ccc(C(=O)CC)cc2)c1OCCCC[N+](C)(C)CC(=O)NCCCCCC.[Br-] | 642 | 4 | 160 | 16 | 32 | 64 | 32 | 64 | – | – | – | – | – | – | – |
| C=CCc1cccc(Oc2ccc(C(=O)CC)cc2)c1OCCC[N+](C)(C)CC(=O)NCCCCC.[Br-] | 690 | 4 | 172 | 8 | > 128 | 32 | 16 | 8 | – | – | – | – | – | – | – |
| C=CCc1cccc(Oc2ccc(C(=O)CC)cc2)c1OCCC[N+](C)(C)CC(=O)N(CC)CC.[Br-] | 733 | 32 | 22.9 | 32 | 32 | 128 | 64 | 64 | – | – | – | – | – | – | – |
| CCn1cc(C(=O)O)c(=O)c2cc(F)c(N3CCNCC3)cc21 | – | – | – | – | – | – | – | – | Active | – | – | – | – | – | – |
| CC[C@H](C)[C@H](NC(=O)CN)C(=O)NCC(=O)N[C@@H](C)C(=O)N[C@H](C(=O)N[C@@H](CC(C)C)C(=O)N[C@@H](CCCCN)C(=O)N[C@H](C(=O)N[C@@H](CC(C)C)C(=O)N[C@H](C(=O)N[C@H](C(=O)NCC(=O)N[C@@H](CC(C)C)C(=O)N1CCC[C@H]1C(=O)N[C@@H](C)C(=O)N[C@@H](CC(C)C)C(=O)N[C@H](C(=O)N[C@@H](CO)C(=O)N[C@@H](Cc1c[nH]c2ccccc12)C(=O)N[C@H](C(=O)N[C@@H](CCCCN)C(=O)N[C@@H](CCCNC(=N)N)C(=O)N[C@@H](CCCCN)C(=O)N[C@@H](CCCNC(=N)N)C(=O)N[C@@H](CCC(N)=O)C(=O)N[C@@H](CCC(N)=O)C(N)=O)[C@@H](C)CC)[C@@H](C)CC)[C@@H](C)O)[C@@H](C)O)C(C)C)C(C)C | – | – | – | – | – | – | – | – | – | Active | Active | – | – | – | – |
| C=CCc1cccc(Oc2ccc(C(=O)CC)cc2)c1OCCC[N+](C)(C)CC(=O)N1CCOCC1.[Br-] | 674 | 32 | 21.1 | 64 | 64 | 64 | > 128 | > 128 | – | – | – | – | – | – | – |
| C=CCc1cccc(Oc2ccc(C(=O)CC)cc2)c1O | 438 | 128 (≈ 453 µM) | 3.4 | 128 (≈ 453 µM) | > 128 | 64 (≈ 227 µM) | 128 (≈ 453 µM) | > 128 | – | – | – | – | – | – | – |
| C=CCc1cccc(Oc2ccc(C(=O)CC)cc2)c1OCCC[N+](C)(C)CC(=O)N(CCCC)CCCC.[Br-] | 776 | 4 | 194 | 16 | 128 | 16 | 64 | 128 | – | – | – | – | – | – | – |
| C=CCc1cccc(Oc2ccc(C(=O)CC)cc2)c1OCCC[N+](C)(C)CC(=O)N1CCCC1.[Br-] | 526 | 16 | 32.8 | 32 | 64 | 32 | 128 | 64 | – | – | – | – | – | – | – |
| C=CCc1cccc(Oc2ccc(C(=O)CC)cc2)c1OCC[N+](C)(C)CC(=O)N1CCOCC1.[Br-] | > 1280 | 64 | > 20 | 64 | 64 | 16 | 128 | 64 | – | – | – | – | – | – | – |
| CN[C@H](CC(C)C)C(=O)N[C@H]1C(=O)N[C@@H](CC(N)=O)C(=O)N[C@H]2C(=O)N[C@H]3C(=O)N[C@H](C(=O)N[C@H](C(=O)O)c4cc(O)cc(O)c4-c4cc3ccc4O)[C@H](O)c3ccc(c(Cl)c3)Oc3cc2cc(c3O[C@@H]2O[C@H](CO)[C@@H](O)[C@H](O)[C@H]2O[C@H]2C[C@](C)(N)[C@H](O)[C@H](C)O2)Oc2ccc(cc2Cl)[C@H]1O [VANCOMYCIN] | – | – | – | 1 (≈ 0.69 µM) | – | 2 (≈ 1.38 µM) | – | – | – | – | – | 60 | inactive | inactive | inactive |
| C=CCc1cccc(Oc2ccc(C(=O)CC)cc2)c1OCCCC[N+](C)(C)CC(=O)N(CC)CC.[Br-] | > 1280 | 32 | > 40 | 32 | > 128 | 64 | 64 | > 128 | – | – | – | – | – | – | – |
| C=CCc1cccc(Oc2ccc(C(=O)CC)cc2)c1OCC[N+](C)(C)CC(=O)NCCC.[Br-] | 634 | 32 | 19.8 | 32 | 128 | 64 | 128 | > 128 | – | – | – | – | – | – | – |
| Br.C=CCc1cccc(Oc2ccc(C(=O)CC)cc2)c1OCCCCSC(=N)N | 931 | 16 | 58.2 | 32 | 128 | 16 | 32 | 64 | – | – | – | – | – | – | – |
| C=CCc1cccc(Oc2ccc(C(=O)CC)cc2)c1OCC[N+](C)(C)CC(=O)N(CCCC)CCCC.[Br-] | 834 | 8 | 104 | 8 | 128 | 32 | 64 | 128 | – | – | – | – | – | – | – |
| C=CCc1cccc(Oc2ccc(C(=O)CC)cc2)c1OCCCC[N+](C)(C)CC(=O)N1CCCC1.[Br-] | 579 | 16 | 36.2 | 16 | 128 | 32 | 64 | 128 | – | – | – | – | – | – | – |
| C=CCc1cccc(Oc2ccc(C(=O)CC)cc2)c1OCCC[N+](C)(C)CC(=O)N(CCC)CCC.[Br-] | 854 | 16 | 53.3 | 16 | 128 | 32 | 64 | 64 | – | – | – | – | – | – | – |
